#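 Each compound was tested at five concentrations against cells in 96-well plates for 48 hours. Here, GI50 denotes the concentration required for 50% inhibition of growth.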 The source made the active and inactive calls. Rule as the data show it: active = GI50 up to about 1.1 µM and inactive = higher.
# Assays:
# Experiment in all cases: NCI anticancer screen, dose series, 48 h
# MCF7 = system: MCF7
# 786-0 = system: 786-0
# Malme-3M = system: Malme-3M
# PC-3 = system: PC-3
# LOX IMVI = system: LOX IMVI
# MDA-N = system: MDA-N
# NCI/ADR-RES = system: NCI/ADR-RES
# SF-268 = system: SF-268
# OVCAR-8 = system: OVCAR-8
# SW-620 = system: SW-620
# NCI-H460 = system: NCI-H460
# IGROV-1 = system: IGROV-1
# K562 = system: K562
# SK-MEL-2 = system: SK-MEL-2
# TK-10 = system: TK-10
# HCT-116 = system: HCT-116
# NCI-H23 = system: NCI-H23
# CAKI-1 = system: CAKI-1
# SF-295 = system: SF-295
# A498 = system: A498
# SR = system: SR
# SK-MEL-28 = system: SK-MEL-28
# OVCAR-4 = system: OVCAR-4
# T47D = system: T47D
# HOP-92 = system: HOP-92
# OVCAR-5 = system: OVCAR-5
# SNB-75 = system: SNB-75
# HCT-15 = system: HCT-15
# UO-31 = system: UO-31
# BT-549 = system: BT-549
# U-251 = system: U-251
# ACHN = system: ACHN
# CCRF-CEM = system: CCRF-CEM
# M14 = system: M14
# MOLT-4 = system: MOLT-4
# MDA-MB-231 = system: MDA-MB-231
# RXF 393 = system: RXF 393
# A549 = system: A549
# MDA-MB-435 = system: MDA-MB-435
# COLO 205 = system: COLO 205
# SN12C = system: SN12C
# DU-145 = system: DU-145
# HT-29 = system: HT-29
# Hs-578T = system: Hs-578T
# EKVX = system: EKVX
# UACC-62 = system: UACC-62
# NCI-H522 = system: NCI-H522
# KM12 = system: KM12
# SF-539 = system: SF-539
# RPMI-8226 = system: RPMI-8226
# SNB-19 = system: SNB-19
# OVCAR-3 = system: OVCAR-3
# HOP-62 = system: HOP-62
# SK-MEL-5 = system: SK-MEL-5
# SK-OV-3 = system: SK-OV-3
# UACC-257 = system: UACC-257
# NCI-H226 = system: NCI-H226
# HL-60 = system: HL-60
smiles,measurement,setting,value
O=C(O)c1cc(Cl)cc(Cc2cc(Cl)cc(C(=O)O)c2O)c1O,GI50,MCF7,> 100 µM (inactive)
same,GI50,786-0,> 100 µM (inactive)
same,GI50,Malme-3M,> 100 µM (inactive)
same,GI50,PC-3,> 100 µM (inactive)
same,GI50,LOX IMVI,> 100 µM (inactive)
same,GI50,MDA-N,> 100 µM (inactive)
same,GI50,NCI/ADR-RES,> 100 µM (inactive)
same,GI50,SF-268,> 100 µM (inactive)
same,GI50,OVCAR-8,> 100 µM (inactive)
same,GI50,SW-620,> 100 µM (inactive)
same,GI50,NCI-H460,> 100 µM (inactive)
same,GI50,IGROV-1,> 100 µM (inactive)
same,GI50,K562,> 100 µM (inactive)
same,GI50,SK-MEL-2,> 100 µM (inactive)
same,GI50,TK-10,> 100 µM (inactive)
same,GI50,HCT-116,> 100 µM (inactive)
same,GI50,NCI-H23,> 100 µM (inactive)
same,GI50,CAKI-1,> 100 µM (inactive)
same,GI50,SF-295,> 100 µM (inactive)
same,GI50,A498,> 100 µM (inactive)
same,GI50,SR,> 100 µM (inactive)
same,GI50,SK-MEL-28,> 100 µM (inactive)
same,GI50,OVCAR-4,> 100 µM (inactive)
same,GI50,T47D,> 100 µM (inactive)
same,GI50,HOP-92,> 100 µM (inactive)
same,GI50,OVCAR-5,> 100 µM (inactive)
same,GI50,SNB-75,> 100 µM (inactive)
same,GI50,HCT-15,> 100 µM
same,GI50,UO-31,> 100 µM (inactive)
same,GI50,BT-549,> 100 µM (inactive)
same,GI50,U-251,> 100 µM (inactive)
same,GI50,ACHN,> 100 µM (inactive)
same,GI50,CCRF-CEM,> 100 µM (inactive)
same,GI50,M14,> 100 µM (inactive)
same,GI50,MOLT-4,> 100 µM (inactive)
same,GI50,MDA-MB-231,> 100 µM (inactive)
same,GI50,RXF 393,> 100 µM (inactive)
same,GI50,A549,> 100 µM (inactive)
same,GI50,MDA-MB-435,> 100 µM (inactive)
same,GI50,COLO 205,> 100 µM (inactive)
same,GI50,SN12C,> 100 µM (inactive)
same,GI50,DU-145,> 100 µM (inactive)
same,GI50,HT-29,> 100 µM (inactive)
same,GI50,Hs-578T,> 100 µM (inactive)
same,GI50,EKVX,> 100 µM (inactive)
same,GI50,UACC-62,> 100 µM (inactive)
same,GI50,NCI-H522,> 100 µM (inactive)
same,GI50,KM12,> 100 µM (inactive)
same,GI50,SF-539,> 100 µM (inactive)
same,GI50,RPMI-8226,> 100 µM (inactive)
same,GI50,SNB-19,> 100 µM (inactive)
same,GI50,OVCAR-3,> 100 µM (inactive)
same,GI50,HOP-62,> 100 µM (inactive)
same,GI50,SK-MEL-5,> 100 µM (inactive)
same,GI50,SK-OV-3,> 100 µM (inactive)
c1ccc(C2=NNC3c4ccccc4-c4ccccc4N3C2)cc1 (stereo not drawn),GI50,MCF7,14.7 µM (inactive)
same,GI50,786-0,50 µM (inactive)
same,GI50,Malme-3M,30.3 µM (inactive)
same,GI50,PC-3,23.7 µM (inactive)
same,GI50,LOX IMVI,28.6 µM (inactive)
same,GI50,MDA-N,33.5 µM (inactive)
same,GI50,NCI/ADR-RES,31.8 µM (inactive)
same,GI50,SF-268,44.9 µM (inactive)
same,GI50,UACC-257,27.2 µM (inactive)
same,GI50,OVCAR-8,33.8 µM (inactive)
same,GI50,SW-620,33.4 µM (inactive)
same,GI50,NCI-H460,21.9 µM (inactive)
same,GI50,IGROV-1,31.6 µM (inactive)
same,GI50,K562,23.9 µM (inactive)
same,GI50,SK-MEL-2,20.1 µM (inactive)
same,GI50,TK-10,33.7 µM (inactive)
same,GI50,HCT-116,34 µM (inactive)
same,GI50,NCI-H23,26.1 µM (inactive)
same,GI50,CAKI-1,43 µM (inactive)
same,GI50,SF-295,35.6 µM (inactive)
same,GI50,A498,30 µM (inactive)
same,GI50,SR,21.1 µM (inactive)
same,GI50,SK-MEL-28,35.6 µM (inactive)
same,GI50,OVCAR-4,37.9 µM (inactive)
same,GI50,T47D,23.5 µM (inactive)
same,GI50,HOP-92,52.5 µM (inactive)
same,GI50,OVCAR-5,99.8 µM (inactive)
same,GI50,SNB-75,21.9 µM (inactive)
same,GI50,HCT-15,48.4 µM
same,GI50,UO-31,32.4 µM (inactive)
same,GI50,BT-549,33.3 µM (inactive)
same,GI50,U-251,26.5 µM (inactive)
same,GI50,ACHN,31.8 µM (inactive)
same,GI50,M14,29.2 µM (inactive)
same,GI50,MOLT-4,20 µM (inactive)
same,GI50,MDA-MB-231,26 µM (inactive)
same,GI50,RXF 393,40 µM (inactive)
same,GI50,A549,32.7 µM (inactive)
same,GI50,MDA-MB-435,27.8 µM (inactive)
same,GI50,COLO 205,18.4 µM (inactive)
same,GI50,SN12C,35.3 µM (inactive)
same,GI50,DU-145,40.5 µM (inactive)
same,GI50,NCI-H226,26.9 µM (inactive)
same,GI50,HT-29,39.5 µM (inactive)
same,GI50,Hs-578T,34.8 µM (inactive)
same,GI50,EKVX,35.5 µM (inactive)
same,GI50,UACC-62,16.4 µM (inactive)
same,GI50,HL-60,2.08 µM (inactive)
same,GI50,NCI-H522,26.1 µM (inactive)
same,GI50,KM12,37.1 µM (inactive)
same,GI50,SF-539,22.4 µM (inactive)
same,GI50,RPMI-8226,19 µM (inactive)
same,GI50,SNB-19,40 µM (inactive)
same,GI50,OVCAR-3,37.5 µM (inactive)
same,GI50,HOP-62,46.1 µM (inactive)
same,GI50,SK-MEL-5,15.9 µM (inactive)
same,GI50,SK-OV-3,46.6 µM (inactive)
O=C(CSc1nc2ccccc2s1)c1sc2sc3ccccc3[n+]2c1[O-],GI50,MCF7,> 100 µM (inactive)
same,GI50,786-0,> 100 µM (inactive)
same,GI50,Malme-3M,> 100 µM (inactive)
same,GI50,PC-3,> 100 µM (inactive)
same,GI50,LOX IMVI,> 100 µM (inactive)
same,GI50,MDA-N,> 100 µM (inactive)
same,GI50,NCI/ADR-RES,> 100 µM (inactive)
same,GI50,SF-268,> 100 µM (inactive)
same,GI50,UACC-257,> 100 µM (inactive)
same,GI50,OVCAR-8,> 100 µM (inactive)
same,GI50,SW-620,> 100 µM (inactive)
same,GI50,NCI-H460,> 100 µM (inactive)
same,GI50,IGROV-1,> 100 µM (inactive)
same,GI50,K562,> 100 µM (inactive)
same,GI50,SK-MEL-2,> 100 µM (inactive)
same,GI50,TK-10,> 100 µM (inactive)
same,GI50,HCT-116,> 100 µM (inactive)
same,GI50,NCI-H23,> 100 µM (inactive)
same,GI50,CAKI-1,> 100 µM (inactive)
same,GI50,SF-295,> 100 µM (inactive)
same,GI50,A498,> 100 µM (inactive)
same,GI50,SR,> 100 µM (inactive)
same,GI50,SK-MEL-28,> 100 µM (inactive)
same,GI50,OVCAR-4,> 100 µM (inactive)
same,GI50,T47D,> 100 µM (inactive)
same,GI50,HOP-92,> 100 µM (inactive)
same,GI50,OVCAR-5,> 100 µM (inactive)
same,GI50,HCT-15,> 100 µM
same,GI50,UO-31,> 100 µM (inactive)
same,GI50,BT-549,> 100 µM (inactive)
same,GI50,U-251,> 100 µM (inactive)
same,GI50,ACHN,> 100 µM (inactive)
same,GI50,M14,> 100 µM (inactive)
same,GI50,MOLT-4,> 100 µM (inactive)
same,GI50,MDA-MB-231,26.9 µM (inactive)
same,GI50,RXF 393,> 100 µM (inactive)
same,GI50,A549,> 100 µM (inactive)
same,GI50,MDA-MB-435,> 100 µM (inactive)
same,GI50,COLO 205,> 100 µM (inactive)
same,GI50,SN12C,> 100 µM (inactive)
same,GI50,DU-145,> 100 µM (inactive)
same,GI50,NCI-H226,> 100 µM (inactive)
same,GI50,HT-29,> 100 µM (inactive)
same,GI50,Hs-578T,> 100 µM (inactive)
same,GI50,EKVX,> 100 µM (inactive)
same,GI50,UACC-62,> 100 µM (inactive)
same,GI50,HL-60,> 100 µM (inactive)
same,GI50,NCI-H522,> 100 µM (inactive)
same,GI50,KM12,> 100 µM (inactive)
same,GI50,SF-539,> 100 µM (inactive)
same,GI50,RPMI-8226,> 100 µM (inactive)
same,GI50,SNB-19,> 100 µM (inactive)
same,GI50,OVCAR-3,> 100 µM (inactive)
same,GI50,HOP-62,> 100 µM (inactive)
same,GI50,SK-MEL-5,> 100 µM (inactive)
same,GI50,SK-OV-3,> 100 µM (inactive)
